Data from US9695154B2, “Heteroaryl inhibitors of sumo activating enzyme” (MILLENNIUM PHARMACEUTICALS, INC., priority 2013, dated 2017).

Biological target: T1, recombinant human SAE enzyme (Homo sapiens, UniProt Q9UBT2)
T1 sequence (Q9UBT2 1-640): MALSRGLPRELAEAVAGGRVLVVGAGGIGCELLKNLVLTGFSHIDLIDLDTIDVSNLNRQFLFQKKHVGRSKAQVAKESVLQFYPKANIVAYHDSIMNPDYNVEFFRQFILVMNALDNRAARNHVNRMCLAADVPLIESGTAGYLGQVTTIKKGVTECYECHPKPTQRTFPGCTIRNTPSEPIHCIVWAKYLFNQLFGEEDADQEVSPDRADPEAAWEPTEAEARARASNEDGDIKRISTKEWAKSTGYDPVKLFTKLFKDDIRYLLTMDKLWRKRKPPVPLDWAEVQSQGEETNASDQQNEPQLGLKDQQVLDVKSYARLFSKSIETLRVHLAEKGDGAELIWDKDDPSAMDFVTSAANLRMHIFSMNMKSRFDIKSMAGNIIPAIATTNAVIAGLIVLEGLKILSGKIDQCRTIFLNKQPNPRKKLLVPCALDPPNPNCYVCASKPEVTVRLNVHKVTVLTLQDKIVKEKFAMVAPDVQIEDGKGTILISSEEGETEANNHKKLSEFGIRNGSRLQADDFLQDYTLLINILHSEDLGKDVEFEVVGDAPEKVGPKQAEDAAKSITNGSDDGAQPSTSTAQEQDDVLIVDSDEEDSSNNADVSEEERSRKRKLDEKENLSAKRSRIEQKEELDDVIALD
T1 sequence (Q9UBE0 1-346 partner): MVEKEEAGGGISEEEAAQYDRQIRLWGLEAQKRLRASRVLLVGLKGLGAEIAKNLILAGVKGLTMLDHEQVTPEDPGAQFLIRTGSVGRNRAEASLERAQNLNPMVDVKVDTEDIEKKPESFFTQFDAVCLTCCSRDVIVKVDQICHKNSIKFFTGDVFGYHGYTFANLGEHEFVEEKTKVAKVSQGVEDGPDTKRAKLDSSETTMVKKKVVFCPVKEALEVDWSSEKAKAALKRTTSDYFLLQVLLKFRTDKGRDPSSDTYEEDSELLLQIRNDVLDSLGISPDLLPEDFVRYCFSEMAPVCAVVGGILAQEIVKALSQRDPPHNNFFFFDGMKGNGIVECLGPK
Experiment: SAE HTRF Enzyme Assay
Format: biochemical
Conditions: for IC50: class symbols A-C; for Percent Inhibition / inhibition at 0.111 µM: compound concentration 0.111 μM; for Percent Inhibition: 0.111 µM; for inhibition at 0.111 µM: read-out: Percent Inhibition
Experimental: The SAE enzymatic reaction totals 50 μl and contains 50 mM HEPES Hemisodium (pH 7.5), 0.05% BSA, 5 mM MgCl2, 0.5 μM ATP, 250 μM GSH, 0.01 μM Ubc9-GST, 0.125 μM Sumo-Flag and 0.11 nM recombinant human SAE enzyme. The enzymatic reaction mixture with and without inhibitor, Is incubated at 24° C. for 105 min in a 384-well plate before termination with […] of Stop/Detection buffer (0.1M HEPES Hemisodium pH 7.5, 0.05% Tween20, 20 mM EDTA, 410 mM KF, 0.53 nM Europium-Cryptate labeled monoclonal anti-Flag M2 Antibody (CisBio International) and 8.125 μg/ml PHYCOLINK goat anti-GST allophycocyanin (XL-APC) antibody (Prozyme)). After incubation for 2 hours at 24° C., quantification of FRET is performed on the Pherostar™ (BMG Labtech). Percentage inhibition values at a single concentration or enzyme inhibition (IC50) values are determined from those curves. One skilled in the art will appreciate that the values generated either as percentage inhibition at a single concentration or IC50 values are subject to experimental variation.

## CC#CC(C)n1ccc(C(=O)c2cncnc2N[C@@H]2C[C@H](COS(N)(=O)=O)[C@@H](O)C2)n1 (single isomer, unassigned) [Compound I-86, {(1R,2S,4R)-2-hydroxy-4-[(5-{[1-(2S)-(pent-3-yn-2-yl)-1H-pyrazol-3-yl]carbonyl}pyrimidin-4-yl)amino]cyclopentyl}methyl sulfamate or {(1R,2S,4R)-2-hydroxy-4-[(5-{[1-(2R)-(pent-3-yn-2-yl)-1H-pyrazol-3-yl]carbonyl}pyrimidin-4-yl)amino]cyclopentyl}methyl sulfamate]
  IC50: 100 to 1000 nM
  Percent Inhibition: 35%

## CC(c1cccc(Cl)c1)n1ccc(C(=O)c2cncnc2N[C@@H]2C[C@H](COS(N)(=O)=O)[C@@H](O)C2)n1 (single isomer, unassigned) [Compound I-133, [(1R,2S,4R)-4-{[5-({1-[(1S)-1-(3-chlorophenyl)ethyl]-1H-pyrazol-3-yl}carbonyl)pyrimidin-4-yl]amino}-2-hydroxycyclopentyl]methyl sulfamate or [(1R,2S,4R)-4-{[5-({1-[(1R)-1-(3-chlorophenyl)ethyl]-1H-pyrazol-3-yl}carbonyl)pyrimidin-4-yl]amino}-2-hydroxycyclopentyl]methyl sulfamate]
  IC50: 10 to 100 nM
  Percent Inhibition: 61%

## Cc1cc(C(=O)c2cncnc2N[C@@H]2C[C@H](COS(N)(=O)=O)[C@@H](O)C2)nn1C(C)c1cccc(Cl)c1 (single isomer, unassigned) [Compound I-172, [(1R,2S,4R)-4-{[5-({1-[(1R)-1-(3-chlorophenyl)ethyl]-5-methyl-1H-pyrazol-3-yl}carbonyl)pyrimidin-4-yl]amino}-2-hydroxycyclopentyl]methyl sulfamate or [(1R,2S,4R)-4-{[5-({1-[(1S)-1-(3-chlorophenyl)ethyl]-5-methyl-1H-pyrazol-3-yl}carbonyl)pyrimidin-4-yl]amino}-2-hydroxycyclopentyl]methyl sulfamate]
  IC50: 10 to 100 nM
  inhibition at 0.111 µM: 83%

## CCC(c1cccc(Br)c1)n1ccc(C(=O)c2cncnc2N[C@@H]2C[C@H](COS(N)(=O)=O)[C@@H](O)[C@@H]2F)c1 (single isomer, unassigned) [Compound I-175, [(1R,2R,3R,4R)-4-{[5-({1-[(1S)-1-(3-bromophenyl)propyl]-1H-pyrrol-3-yl}carbonyl)pyrimidin-4-yl]amino}-3-fluoro-2-hydroxycyclopentyl]methyl sulfamate or [(1R,2R,3R,4R)-4-{[5-({1-[(1R)-1-(3-bromophenyl)propyl]-1H-pyrrol-3-yl}carbonyl)pyrimidin-4-yl]amino}-3-fluoro-2-hydroxycyclopentyl]methyl sulfamate]
  IC50: < 10 nM
  inhibition at 0.111 µM: 99%

## CC(c1cccc(Br)c1)n1ccc(C(=O)c2cncnc2N[C@@H]2C[C@H](COS(N)(=O)=O)[C@@H](O)[C@@H]2F)c1 (single isomer, unassigned) [Compound I-192, [(1R,2R,3R,4R)-4-{[5-({1-[(1S)-1-(3-bromophenyl)ethyl]-1H-pyrrol-3-yl}carbonyl)pyrimidin-4-yl]amino}-3-fluoro-2-hydroxycyclopentyl]methyl sulfamate or [(1R,2R,3R,4R)-4-{[5-({1-[(1R)-1-(3-bromophenyl)ethyl]-1H-pyrrol-3-yl}carbonyl)pyrimidin-4-yl]amino}-3-fluoro-2-hydroxycyclopentyl]methyl sulfamate]
  IC50: < 10 nM
  inhibition at 0.111 µM: 98%

## CC(c1ccc(C(F)(F)F)o1)n1ccc(C(=O)c2cncnc2N[C@@H]2C[C@H](COS(N)(=O)=O)[C@@H](O)[C@@H]2F)c1 (single isomer, unassigned) [Compound I-304, [(1R,2R,3R,4R)-3-fluoro-2-hydroxy-4-({5-[(1-{(1S)-1-[5-(trifluoromethyl)-2-furyl]ethyl}-1H-pyrrol-3-yl)carbonyl]pyrimidin-4-yl}amino)cyclopentyl]methyl sulfamate or [(1R,2R,3R,4R)-3-fluoro-2-hydroxy-4-({5-[(1-{(1R)-1-[5-(trifluoromethyl)-2-furyl]ethyl}-1H-pyrrol-3-yl)carbonyl]pyrimidin-4-yl}amino)cyclopentyl]methyl sulfamate]
  IC50: 10 to 100 nM
  inhibition at 0.111 µM: 91%

## CC(c1cccc(Br)c1)n1ccc(C(=O)c2cncnc2N[C@@H]2C[C@H](COS(N)(=O)=O)[C@@H](O)C2)n1 (single isomer, unassigned) [Compound I-315, [(1R,2S,4R)-4-{[5-({1-[(1S)-1-(3-bromophenyl)ethyl]-1H-pyrazol-3-yl}carbonyl)pyrimidin-4-yl]amino}-2-hydroxycyclopentyl]methyl sulfamate or [(1R,2S,4R)-4-{[5-({1-[(1R)-1-(3-bromophenyl)ethyl]-1H-pyrazol-3-yl}carbonyl)pyrimidin-4-yl]amino}-2-hydroxycyclopentyl]methyl sulfamate]
  IC50: < 10 nM
  inhibition at 0.111 µM: 99%

## NS(=O)(=O)OC[C@H]1C[C@@H](Nc2ncncc2C(=O)c2ccn(C3CCc4ccccc43)n2)[C@H](O)[C@@H]1O (single isomer, unassigned) [Compound I-323, {(1R,2R,3S,4R)-4-[(5-{[1-((1R)-2,3-dihydro-1H-inden-1-yl)-1H-pyrazol-3-yl]carbonyl}pyrimidin-4-yl)amino]-2,3-dihydroxycyclopentyl}methyl sulfamate or {(1R,2R,3S,4R)-4-[(5-{[1-((1S)-2,3-dihydro-1H-inden-1-yl)-1H-pyrazol-3-yl]carbonyl}pyrimidin-4-yl)amino]-2,3-dihydroxycyclopentyl}methyl sulfamate]
  IC50: 10 to 100 nM
  inhibition at 0.111 µM: 82%

## CC(c1ccc(Cl)o1)n1ccc(C(=O)c2cncnc2N[C@@H]2C[C@H](COS(N)(=O)=O)[C@@H](O)[C@@H]2F)c1 (single isomer, unassigned) [Compound I-350, [(1R,2R,3R,4R)-4-{[5-({1-[(1S)-1-(5-chloro-2-furyl)ethyl]-1H-pyrrol-3-yl}carbonyl)pyrimidin-4-yl]amino}-3-fluoro-2-hydroxycyclopentyl]methyl sulfamate or [(1R,2R,3R,4R)-4-{[5-({1-[(1R)-1-(5-chloro-2-furyl)ethyl]-1H-pyrrol-3-yl}carbonyl)pyrimidin-4-yl]amino}-3-fluoro-2-hydroxycyclopentyl]methyl sulfamate]
  IC50: < 10 nM
  inhibition at 0.111 µM: 96%

## CC(c1ccccc1)n1ccc(C(=O)c2cncnc2N[C@@H]2C[C@H](COS(N)(=O)=O)[C@@H](O)[C@H]2O)n1 (single isomer, unassigned) [Compound I-351, {(1R,2R,3S,4R)-2,3-dihydroxy-4-[(5 -{[1-((1S)-1-phenylethyl)-1H-pyrazol-3-yl]carbonyl}pyrimidin-4-yl)amino]cyclopentyl}methyl sulfamate or {(1R,2R,3S,4R)-2,3-dihydroxy-4-[(5-{[1-((1R)-1-phenylethyl)-1H-pyrazol-3-yl]carbonyl}pyrimidin-4-yl)amino]cyclopentyl}methyl sulfamate]
  IC50: < 10 nM
  inhibition at 0.111 µM: 97%

## NS(=O)(=O)OC[C@H]1C[C@@H](Nc2ncncc2C(=O)c2ccn(C3CCc4ccccc43)n2)[C@H](O)[C@@H]1O (single isomer, unassigned) [Compound I-353, {(1R,2R,3S,4R)-4-[(5-{[1-((1R)-2,3-dihydro-1H-inden-1-yl)-1H-pyrazol-3-yl]carbonyl}pyrimidin-4-yl)amino]-2,3-dihydroxycyclopentyl}methyl sulfamate or {(1R,2R,3S,4R)-4-[(5-{[1-((1S)-2,3-dihydro-1H-inden-1-yl)-1H-pyrazol-3-yl]carbonyl}pyrimidin-4-yl)amino]-2,3-dihydroxycyclopentyl}methyl sulfamate]
  IC50: 10 to 100 nM
  Percent Inhibition: 90%
